The values below come from patent publication US20040192686A1, “Benzoazine mono-N-oxides and benzoazine 1,4 dioxides and compositions therefrom for the therapeutic use in cancer treatments” (Auckland Uniservices Limited, priority 2003, published 2004).

Counter-ions that a name gives are not always drawn.

A word on the melting point: it is the temperature, or range, at which the solid turns liquid.

`N#CCCNc1nc2ccccc2[n+]([O-])n1` [Compound 26, 3-[(1-Oxido-1,2,4-benzotriazin-3-yl)amino]propanenitrile]: the melting point fell in the range of 191 to 193 °C.
Under `COc1ccc2nc(NCCN3CCCCC3)n[n+]([O-])c2c1` [Compound 93, 7-Methoxy-N-[2-(1-piperidinyl)ethyl]-1,2,4-benzotriazin-3-amine 1-oxide] stands 162 to 165 °C; under `Cc1ccc2c(c1)nc(NCCO)n[n+]2[O-]` [Compound 74, 2-[(6-Methyl-1-oxido-1,2,4-benzotriazin-3-yl)amino]ethanol], 198 to 202 °C.
The molecule `Nc1nc2cc(F)ccc2[n+]([O-])n1` [Compound 3t, 6-Fluoro-1,2,4-benzotriazin-3-amine 1-oxide] gave a melting point of 276 to 280 °C.
Under `Cc1cccc2nc(NCCN(C)C)n[n+]([O-])c12` [Compound 101, N^1,N^1-Dimethyl-N^2-(8-methyl-1-oxido-1,2,4-benzotriazin-3-yl)-1,2-ethanediamine] stands 121 to 123 °C; under `Cc1cc2nc(NCCN3CCOCC3)n[n+]([O-])c2cc1C` [Compound 167, 6,7-Dimethyl-N-[2-(4-morpholinyl)ethyl]-1,2,4-benzotriazi n-3-amine 1-Oxide], 211 to 213 °C; under `Cc1ccc2c(c1)nc(NCCCN1CCOCC1)n[n+]2[O-]` [Compound 139, 6-Methyl-N-[3-(4-morpholinyl)propyl]-1,2,4-benzotriazin-3-amine 1-Oxide], 131 to 132 °C.
Under `Nc1nc2cc(C(F)(F)F)ccc2[n+]([O-])n1` [Compound 3v, 6-Trifluoromethyl-1,2,4-benzotriazin-3-amine 1-oxide] stands 280 to 284 °C (dec.).
For the molecule `Nc1nc2ccc(C(F)(F)F)cc2[n+]([O-])n1` [Compound 3m, 7-Trifluoromethyl-1,2,4-benzotriazin-3-amine 1-oxide], the melting point is 290 °C (dec.).
For the molecule `COCCNc1nc2ccccc2[n+]([O-])c1C#N` [Compound 123, 3-[(2-Methoxyethyl)amino]-2-quinoxalinecarbonitrile 1-oxide], the melting point was in the range of 124 to 126 °C.
The result for `Cc1cc2nc(NCCN(C)C)n[n+]([O-])c2cc1C` [Compound 106, N^1-(6,7-Dimethyl-1-oxido-1,2,4-benzotriazin-3-yl)-N^2,N^2-dimethyl-1,2-ethanediamine] reads 175 to 178 °C.
The result for `CCOC(=O)CNc1nc2ccccc2[n+]([O-])n1` [Compound 20, Ethyl [(1-oxido-1,2,4-benzotriazin-3-yl)amino]acetate] reads 136 to 138 °C.
The result for `N#CCCCNc1nc2ccccc2[n+]([O-])n1` [Compound 27, 4-[(1-Oxido-1,2,4-benzotriazin-3-yl)amino]butanenitrile] reads 184 to 187 °C.
For the molecule `COc1cc2nc(Cl)n[n+]([O-])c2cc1C` [Compound 113, 3-Chloro-6-methoxy-7-methyl-1,2,4-benzotriazine 1-oxide], the melting point is 180 to 182 °C.
The result for `Cc1ccc2c(c1)nc(N)n[n+]2[O-]` [Compound 3r, 6-Methyl-1,2,4-benzotriazin-3-amine 1-oxide] reads 263 °C (dec.); that for `COc1ccc2nc(NCCN3CCOCC3)n[n+]([O-])c2c1` [Compound 94, 7-Methoxy-N-[2-(4-morpholinyl)ethyl]-1,2,4-benzotriazin-3-amine 1-oxide], 208 to 212 °C.
The result for `CN(C)CCN(C)c1nc2ccccc2[n+]([O-])n1` (as salt: hydrochloride) [Compound 38, N^1,N^1,N^2-Trimethyl-N^2-(1-oxido-1,2,4-benzotriazin-3-yl)-1,2-ethanediamine] reads 220 to 223 °C; that for `Nc1nc2cccc(Cl)c2[n+]([O-])n1` [Compound 3d, 8-Chloro-1,2,4-benzotriazin-3-amine 1-oxide], 280 to 290 °C (dec.); that for `CCCN(CCC)CCNc1nc2cc(C(C)C)ccc2[n+]([O-])n1` [Compound 151, N^1-(6-Isopropyl-1-oxido-1,2,4-benzotriazin-3-yl)-N^2,N^2-dipropyl-1,2-ethanediamine], 79 to 81 °C.
The result for `[O-][n+]1nc(Cl)nc2cc(Cl)ccc21` [Compound 133, 3,6-Dichloro-1,2,4-benzotriazine 1-Oxide] reads 149 to 151 °C; that for `Nc1nc2ccc(OCCBr)cc2[n+]([O-])n1` [Compound 15, 7-(2-Bromoethoxy)-1,2,4-benzotriazin-3-amine 1-oxide], 228 to 230 °C.
As for `CN(C)CCNc1nc2cc(C(C)(C)C)ccc2[n+]([O-])n1` [Compound 155, N^1-(6-tert-Butyl-1-oxido-1,2,4-benzotriazin-3-yl)-N^2,N^2-dimethyl-1,2-ethanediamine], the melting point was in the range of 140 to 144 °C.
Under `CN(C)CCNC(=O)Cc1ccc(Nc2nc3ccccc3[n+]([O-])n2)cc1` [Compound 54, N-[2-(Dimethylamino)ethyl]-2-{4-[(1-oxido-1,2,4-benzotriazin-3-yl)amino]phenyl}acetamide] stands 225 to 226 °C; under `CSc1cccc2nc(N)n[n+]([O-])c12` (hydrate or solvate) [Compound 3f, 8-(Methylsulfanyl)-1,2,4-benzotriazin-3-amine 1-oxide], 271 to 275 °C; under `CCN(CC)c1ccc2c(c1)nc(N)n[n+]2[O-]` [Compound 13, N^6, N^6-Diethyl-1,2,4-benzotriazine-3,6-diamine 1-oxide], 247 to 251 °C.
The result for `O=C(O)CNc1nc2ccccc2[n+]([O-])n1` [Compound 21, [(1-Oxido-1,2,4-benzotriazin-3-yl)amino]acetic acid] reads 217 to 219 °C; that for `Nc1nc2ccc(OCCN3CCOCC3)cc2[n+]([O-])n1` [Compound 17, 7-[2-(4-Morpholinyl)ethoxy]-1,2,4-benzotriazin-3-amin 1-oxide], 175 to 181 °C.
Turning to `COc1cc2c(cc1C)nc(Cl)n[n+]2[O-]` [Compound 117, 3-Chloro-7-methoxy-6-methyl-1,2,4-benzotriazine 1-oxide], the melting point was 200 to 202 °C.
The result for `CC(C)(C)c1ccc2c(c1)nc(N)n[n+]2[O-]` [Compound 153, 6-tert-Butyl-1,2,4-benzotriazin-3-amine 1-Oxide] reads 209 to 212 °C.
The result for `[O-][n+]1nc(Cl)nc2ccc(OCCN3CCOCC3)cc21` [Compound 98, 3-Chloro-7-[2-(4-morpholinyl)ethoxy]-1,2,4-benzotriazine 1-oxide] reads 144 to 146 °C; that for `[O-][n+]1nc(NCCOCCO)nc2ccccc21` [Compound 33, 3-{[2-(2-Hydroxyethoxy)ethyl]amino}-1,2,4-benzotriazine 1-oxide], 131 to 131.5 °C; that for `Cc1cccc2nc(NCCN3CCOCC3)n[n+]([O-])c12` [Compound 163, 8-Methyl-N-[2-(4-morpholinyl)ethyl]-1,2,4-benzotriazin-3-amine 1-Oxide], 168 to 170 °C.
Under `CCN(CC)CCNc1nc2cc(C)ccc2[n+]([O-])n1` [Compound 137, N^1,N^1-Diethyl-N^2-(6-methyl-1-oxido-1,2,4-benzotriazin-3-yl)-1,2-ethanediamine] stands 78 to 80 °C.
Consider `Nc1nc2cccc(F)c2[n+]([O-])n1` [Compound 3c, 8-Fluoro-1,2,4-benzotriazin-3-amine 1-oxide], for which the melting point is 270 to 278 °C (dec.).
The result for `O=C(O)Cc1ccc(Nc2nc3ccccc3[n+]([O-])n2)cc1` [Compound 52, {4-[(1-Oxido-1,2,4-benzotriazin-3-yl)amino]phenyl}acetic acid] reads 243 to 245 °C.
The result for `O=C(NCCOCCNc1nc2ccccc2[n+]([O-])n1)c1cccc2cc3ccccc3nc12` [Compound 121, N-(2-{2-[(1-Oxido-1,2,4-benzotriazin-3-yl)amino]ethoxy}ethyl)-4-acridinecarboxamide] reads 178 to 182 °C.
Under `CSc1ccc2nc(N)n[n+]([O-])c2c1` [Compound 3n, 7-(Methylsulfanyl)-1,2,4-benzotriazin-3-amine 1-oxide] stands 245 to 247 °C.
With `COc1cccc2c1nc(N)n[n+]2[O-]` [Compound 3y, 5-Methoxy-1,2,4-benzotriazin-3-amine 1-oxide], the melting point was 267 °C (dec.).
In turn, `Cc1cc(C)c2c(c1)nc(NCCN1CCCCC1)n[n+]2[O-]` [Compound 110, 6,8-Dimethyl-N-[2-(1-piperidinyl)ethyl]-1,2,4-benzotriazin-3-amine 1-oxide] registered a melting point of 177 to 178 °C.
The result for `COCCc1nc2ccccc2[n+]([O-])n1` [Compound 63, 3-(2-Methoxyethyl)-1,2,4-benzotriazine 1-oxide] reads 56 to 58 °C.
Under `COCCOc1ccc2nc(N)n[n+]([O-])c2c1` [Compound 14, 7-(2-Methoxyethoxy)-1,2,4-benzotriazin-3-amine 1-oxide] stands 201 to 203 °C; under `[O-][n+]1nc(NCCN2CCCC2)nc2ccccc21` [Compound 40, N-[2-(1-Pyrrolidinyl)ethyl]-1,2,4-benzotriazin-3-amin 1-oxid], 141 to 143 °C; under `CCN(CC)CCNc1nc2cc(Cl)ccc2[n+]([O-])n1` [Compound 134, N^1-(6-Chloro-1-oxido-1,2,4-benzotriazin-3-yl)-N^2,N^2-diethyl-1,2-ethanediamine], 128 to 130 °C.
Under `COCCNc1nc2ccccc2[n+]([O-])n1` [Compound 23, N-(2-Methoxyethyl)-1,2,4-benzotriazin-3-amine 1-oxide] stands 155 to 156 °C; under `COCCOc1ccc2nc(Cl)n[n+]([O-])c2c1` [Compound 96, 3-Chloro-7-(2-methoxyethoxy)-1,2,4-benzotriazine 1-oxide], 121 to 125 °C.
Molecule `C=CCc1nc2cc(C)ccc2[n+]([O-])n1` [Compound 80, 3-Allyl-6-methyl-1,2,4-benzotriazine 1-oxide] gave a melting point of 65 to 67 °C.
As for `Nc1nc2cc(-c3ccccc3)ccc2[n+]([O-])n1` [Compound 3s, 6-Phenyl-1,2,4-benzotriazin-3-amine 1-oxide], the melting point was 256 to 258 °C.
